Source: patent publication US20230060581A1, “METHOD OF TREATING PANCREATIC CANCER” (CEDARS-SINAI MEDICAL CENTER, priority 2020, published 2023)
“Also recorded” adds a separate entry of the source. Like-named read-outs stand apart in the source and are kept apart here.

How the values were obtained:
[1] = humans; cited from earlier work
P-gp and BCRP = conditions: in vitro; cited from earlier work
[2] = in vivo; cited from earlier work
CYP1A2 and CYP2C19 = conditions: metabolic pathway contribution; cited from earlier work
UGT1A1 = target: T1, UGT1A1 (Homo sapiens, UniProt P22309); conditions: cited from earlier work
T1 sequence (P22309 26-533): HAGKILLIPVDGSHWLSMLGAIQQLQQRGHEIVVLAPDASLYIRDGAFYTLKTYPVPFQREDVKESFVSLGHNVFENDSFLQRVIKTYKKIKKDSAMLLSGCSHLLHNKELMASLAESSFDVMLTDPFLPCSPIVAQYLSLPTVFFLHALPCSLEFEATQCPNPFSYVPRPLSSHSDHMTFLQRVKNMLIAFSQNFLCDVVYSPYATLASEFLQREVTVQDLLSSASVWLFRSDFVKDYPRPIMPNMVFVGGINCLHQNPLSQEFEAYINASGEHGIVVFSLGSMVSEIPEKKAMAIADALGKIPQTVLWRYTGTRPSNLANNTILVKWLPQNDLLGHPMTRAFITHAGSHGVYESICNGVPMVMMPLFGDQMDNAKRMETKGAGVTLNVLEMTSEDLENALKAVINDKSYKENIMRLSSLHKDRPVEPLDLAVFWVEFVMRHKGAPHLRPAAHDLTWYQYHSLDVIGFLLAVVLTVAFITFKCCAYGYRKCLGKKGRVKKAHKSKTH

[3] = cited from earlier work; for dose absorbed: human
[4] = system: CYP2B6, CYP2C9 and CYP3A4; conditions: human primary hepatocytes; cited from earlier work
CYP3A4 = CYP3A4 (Homo sapiens, UniProt P08684); conditions: cited from earlier work
CYP3A = conditions: concomitant administration; cited from earlier work
[5] = system: CYP1A2, CYP2B6, CYP2C8, CYP2C9, CYP3A4 and UGT1A1; conditions: cited from earlier work
[6] = system: P-gp, BCRP, OATP1B1, OATP1B3, OAT1, OAT3 and OCT2; conditions: in vitro, cited from earlier work
[7] = system: CYP3A4, CYP2C19, and CYP2D6; conditions: in vitro, cited from earlier work
[8] = target: BRAF N486_P490del (delta-NVTAP) (Homo sapiens, UniProt P15056, DEL486-490); conditions: experimentally, PMID: 26996308; cited from earlier work
BRAF ΔNVTAP deletion = conditions: patients with ΔNVTAP deletion, clinical case reports; cited from earlier work
[9] = system: BRAF-mutated pancreatic cancer; assay: Response and progression-free survival on BRAF/MEK/ERK-directed therapy, retrospective clinical case series; format: in vivo, human; conditions: patients with fusion abnormalities, single agent trametinib
Description: Each horizontal bar represents the time on therapy without disease progression (i.e. progression-free survival). […] Bars capped with arrows indicate lines of therapy that were continuing as of the last available progress note (censored event).
Individual patient charts were retrospectively reviewed, and clinical information was extracted.
Demographic, clinical descriptors, and outcomes data were collected under institution-specific IRB-approved protocols for each individual site. The data from each site was de-identified before being shared in a HIPAA-compliant database.
Demographic data, date of diagnosis, staging information, treatment history, and response to therapy were collected from all participating sites. Overall survival (OS) was calculated from the time of the patient's diagnosis of advanced PC (i.e. the date of recurrence following surgical resection or the date of initial diagnosis in the context of metastatic or unresectable disease) until death (survival event) or last follow-up (censored event). […] Progression-free survival (PFS) was calculated from the time of initiation of a therapy until discontinuation due to disease progression (survival event), cessation due to tolerability issues (censored event), or the last follow-up (censored event).
All survival analysis methods were implemented in an R/Bioconductor programming environment. […]

Sequence of BRAF N486_P490del (delta-NVTAP) (P15056 with tags, fused parts or gaps DEL486-490): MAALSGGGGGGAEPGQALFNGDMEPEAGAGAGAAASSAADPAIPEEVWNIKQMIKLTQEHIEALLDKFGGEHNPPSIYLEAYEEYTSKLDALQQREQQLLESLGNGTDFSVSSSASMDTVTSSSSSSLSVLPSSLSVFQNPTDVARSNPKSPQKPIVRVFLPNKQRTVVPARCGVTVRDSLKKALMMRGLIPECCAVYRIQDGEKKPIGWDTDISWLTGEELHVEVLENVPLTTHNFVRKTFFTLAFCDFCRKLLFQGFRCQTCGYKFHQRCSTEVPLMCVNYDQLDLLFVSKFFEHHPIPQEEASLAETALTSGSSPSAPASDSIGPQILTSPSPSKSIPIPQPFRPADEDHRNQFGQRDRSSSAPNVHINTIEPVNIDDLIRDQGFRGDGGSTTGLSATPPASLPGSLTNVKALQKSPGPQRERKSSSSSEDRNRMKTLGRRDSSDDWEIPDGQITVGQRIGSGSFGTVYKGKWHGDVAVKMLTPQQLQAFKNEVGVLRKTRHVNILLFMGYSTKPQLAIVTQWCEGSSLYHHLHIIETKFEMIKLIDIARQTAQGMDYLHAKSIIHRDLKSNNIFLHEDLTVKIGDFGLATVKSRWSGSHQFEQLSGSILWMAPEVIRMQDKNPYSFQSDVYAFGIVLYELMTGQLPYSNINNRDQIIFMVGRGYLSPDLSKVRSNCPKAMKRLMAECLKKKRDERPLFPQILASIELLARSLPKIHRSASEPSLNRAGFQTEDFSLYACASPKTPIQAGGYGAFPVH
Sequence of CYP3A4 (P08684 whole entry): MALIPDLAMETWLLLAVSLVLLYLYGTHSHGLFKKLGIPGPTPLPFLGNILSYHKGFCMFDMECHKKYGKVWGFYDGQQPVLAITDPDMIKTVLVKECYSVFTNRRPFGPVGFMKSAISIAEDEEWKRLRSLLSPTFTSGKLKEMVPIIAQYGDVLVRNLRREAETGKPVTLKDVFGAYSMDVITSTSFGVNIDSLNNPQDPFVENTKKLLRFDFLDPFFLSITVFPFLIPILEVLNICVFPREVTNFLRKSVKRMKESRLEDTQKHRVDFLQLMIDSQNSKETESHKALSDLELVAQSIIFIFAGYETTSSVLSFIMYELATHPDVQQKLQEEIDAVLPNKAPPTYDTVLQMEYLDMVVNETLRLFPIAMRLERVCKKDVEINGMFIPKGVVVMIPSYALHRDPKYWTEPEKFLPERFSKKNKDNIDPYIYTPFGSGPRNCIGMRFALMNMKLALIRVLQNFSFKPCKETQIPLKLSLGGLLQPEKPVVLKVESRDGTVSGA

Compound: Cn1cnc2c(F)c(Nc3ccc(Br)cc3F)c(C(=O)NOCCO)cc21 [Binimetinib]
- blood-to-plasma concentration ratio [1]: 0.718
- bound to plasma proteins [1]: 97.2%
- transporter substrate (P-gp and BCRP): substrate of P-gp and BCRP; also recorded: substrate for P-gp and BCRP
- known potential toxicities, Very Common (≥10%) [2]: diarrhea, nausea, vomiting, fatigue, peripheral edema, increased AST, increased blood creatine phosphokinase, dermatitis acneiform, dry skin, pruritus, rash, decreased ejection fraction
- N-dealkylation via CYP1A2 and CYP2C19 (CYP1A2 and CYP2C19): up to 17.8%
- primary route of metabolism (UGT1A1; in vitro): primarily metabolized by glucuronidation through UGT1A1
- glucuronidation via UGT1A1 (UGT1A1; metabolic pathway contribution): up to 61.2%
- dose absorbed [3]: approximately 50%
- accumulation ([3]; in vivo): approximately 1.5 fold
- estimated renal clearance of unchanged drug ([3]; in vivo): 6.3 % of total dose
- excretion of unchanged drug in feces ([3]; in vivo): 31.7%
- excretion of unchanged drug in urine ([3]; in vivo): 18.4%
- time to steady state concentrations ([3]; in vivo): ≤ 15 days

Compound: COC(=O)N[C@@H](C)CNc1nccc(-c2cn(C(C)C)nc2-c2cc(Cl)cc(NS(C)(=O)=O)c2F)n1 [Encorafenib]
- enzyme induction [4]: induced CYP2B6, CYP2C9 and CYP3A4
- transporter substrate (P-gp and BCRP): substrate of the transporter P-gp
- time-dependent enzyme inhibition (CYP3A4): time-dependent inhibitor of CYP3A4
- effect of strong or moderate CYP3A inhibitors on exposure (CYP3A): may increase encorafenib plasma concentration
- reversible enzyme inhibition [5]: reversible inhibitor of CYP1A2, CYP2B6, CYP2C8, CYP2C9, CYP3A4 and UGT1A1
- transporter inhibition [6]: potent inhibitor of the renal transporters, OAT1, OAT3 and OCT2, and the hepatic transporters OATP1B1 and OATP1B3
- transporter inhibition ([6]; listed as encorafenib): can potentially inhibit the transporters P-gp, BCRP, OATP1B1, OATP1B3, OAT1, OAT3 and OCT2 at clinical concentrations
- metabolising enzymes and pathway [7]: metabolized by CYP3A4 and to a lesser extent by CYP2C19; also recorded: N-dealkylation is the primary metabolic pathway; CYP3A4 (primary), CYP2C19, and CYP2D6 (minor) contribute to total oxidative clearance in human liver microsomes
- metabolising enzymes and pathway ([7]; listed as encorafenib): mainly metabolized by CYP3A
- dose absorbed [3]: At least 86%
- excretion, feces ([3]; in vivo): 39%
- excretion, urine ([3]; in vivo): 47.2%

Compound: CC(C)(C)c1nc(-c2cccc(NS(=O)(=O)c3c(F)cccc3F)c2F)c(-c2ccnc(N)n2)s1 [dabrafenib]
- Implications for BRAF Inhibitors: dabrafenib sensitivity [8]: sensitive;
- clinical activity (BRAF ΔNVTAP deletion): significant activity

Compound: CC(=O)Nc1cccc(-n2c(=O)n(C3CC3)c(=O)c3c(Nc4ccc(I)cc4F)n(C)c(=O)c(C)c32)c1 [trametinib]
- patients having disease control [9]: 4/6
